Test results: patent US10030027B2, “Soluble guanylate cyclase stimulators” (MERCK SHARP & DOHME CORP., priority 2015, dated 2018)

Experiments:
[1] = target: human recombinant sGC enzyme (Homo sapiens (Human), UniProt Q02108+Q02153); test: Size Exclusion Chromatography (SEC) competition binding assay using [3H] Ex-77B as the radioligand; conditions: [3H] Ex-77B radioligand, 24 hours at 37° C.
In short: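 Recombinant human sGC binding measured by competition against tritiated Ex-77B radioligand, with non-specific binding defined by 1 μM unlabeled Ex-77B.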

sGC α1/β1 heterodimer = sGC α1/β1 heterodimer (Homo sapiens (Human), UniProt Q02108+Q02153); test: Cell-based sGC functional assay (cyclic GMP assay for sGC activator: CASA assay); conditions: CHO-K1/sGC cells; for Emax: CHO-K1, activity expressed as percentage of compound A (standard), read-out: % Activation; for EC50: inflection point, 4P fit, read-out: IP
In short: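 CHO-K1 cells stably expressing human sGC α1/β1 were pre-incubated 30 min at 25° C with or without 1 μM DETA-NO, then exposed to compound for 1 hr at 37° C with 0.5 mM IBMX and 2.5% DMSO final. Intracellular cGMP was measured by HTRF, expressed as % of reference sGC-HDA maximum; inflection point and maximum fold induction came from 4-parameter fits.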

Row | SMILES | Ki [1] | Emax (sGC α1/β1 heterodimer) | EC50 (sGC α1/β1 heterodimer)
1 | CC(C)(Cc1csc([C@]2(C)C(=O)Nc3nc(-c4nn(Cc5c(F)cccc5F)c5cc(Cl)ccc45)nc(N)c32)n1)C(=O)O [Example 183A, (S)-3-(2-{4-amino-2-[6-chloro-1-(2,6-difluorobenzyl)-1H-indazol-3-yl]-5-methyl-6-oxo-6,7-dihydro-5H-pyrrolo[2,3-d]pyrimidin-5-yl}-1,3-thiazol-4-yl)-2,2-dimethyl-propanoic acid] | 0.076 nM | 111% | 88 nM
2 | CC(C)(Cc1coc(C2(C)C(=O)Nc3nc(-c4nn(Cc5ncccc5F)c5cc(Cl)ccc45)nc(N)c32)n1)C(=O)O (stereo not drawn) [Example 184A, 3-{2-[4-amino-2-{6-chloro-1-[(3-fluoropyridin-2-yl)methyl]-1H-indazol-3-yl}-5-methyl-6-oxo-6,7-dihydro-5H-pyrrolo[2,3-d]pyrimidin-5-yl]-1,3-oxazol-4-yl}-2,2-dimethyl-propanoic acid] | 0.092 nM | 97.7% | 230 nM
3 | Cc1cccc(Cn2nc(-c3nc(N)c4c(n3)NC(=O)C4(C)c3nc(CC(C)(C)C(=O)O)co3)c3ccc(Cl)cc32)c1 (stereo not drawn) [Example 186A, 3-(2-{4-amino-2-[6-chloro-1-(3-methylbenzyl)-1H-indazol-3-yl]-5-methyl-6-oxo-6,7-dihydro-5H-pyrrolo[2,3-d]pyrimidin-5-yl}-1,3-oxazol-4-yl)-2,2-dimethyl-propanoic acid] | 0.12 nM | 83.3% | 205 nM
4 | Cc1cccc(Cn2nc(-c3nc(N)c4c(n3)NC(=O)C4(C)c3nc(CC(C)(C)C(=O)O)co3)c3ccc(Cl)cc32)c1F (stereo not drawn) [Example 187A, 3-(2-{4-amino-2-[6-chloro-1-(2-fluoro-3-methyl-benzyl)-1H-indazol-3-yl]-5-methyl-6-oxo-6,7-dihydro-5H-pyrrolo[2,3-d]pyrimidin-5-yl}-1,3-oxazol-4-yl)-2,2-dimethyl-propanoic acid] | 0.029 nM | 97.1% | 244 nM
5 | Cc1cccc(Cn2nc(-c3nc(N)c4c(n3)NC(=O)[C@@]4(C)c3nc(CC(C)(C)C(=O)O)cs3)c3ccc(Cl)cc32)c1F [Example 188A, (S)-3-(2-{4-amino-2-[6-chloro-1-(2-fluoro-3-methyl-benzyl)-1H-indazol-3-yl]-5-methyl-6-oxo-6,7-dihydro-5H-pyrrolo[2,3-d]pyrimidin-5-yl}-1,3-thiazol-4-yl)-2,2-dimethyl-propanoic acid] | 0.1 nM | 124% | 109 nM
6 | CC(C)(Cc1coc(C2(C)C(=O)Nc3nc(-c4nn(Cc5c(F)ccc(F)c5F)c5cc(Cl)ccc45)nc(N)c32)n1)C(=O)O (stereo not drawn) [Example 189A, 3-(2-{4-amino-2-[6-chloro-1-(2,3,6-trifluorobenzyl)-1H-indazol-3-yl]-5-methyl-6-oxo-6,7-dihydro-5H-pyrrolo[2,3-d]pyrimidin-5-yl}-1,3-oxazol-4-yl)-2,2-dimethyl-propanoic acid] | 0.049 nM | 116% | 51 nM
7 | CC(C)(Cc1csc([C@]2(C)C(=O)Nc3nc(-c4nn(Cc5c(F)ccc(F)c5F)c5cc(Cl)ccc45)nc(N)c32)n1)C(=O)O [Example 190A, (S)-3-(2-{4-amino-2-[6-chloro-1-(2,3,6-trifluoro-benzyl)-1H-indazol-3-yl]-5-methyl-6-oxo-6,7-dihydro-5H-pyrrolo[2,3-d]pyrimidin-5-yl}-1,3-thiazol-4-yl)-2,2-dimethyl-propanoic acid] | 0.031 nM | 120% | 49 nM
8 | CC1(c2cccc(C(=O)O)c2)C(=O)Nc2nc(-c3nn(Cc4ccccc4F)c4cc(F)ccc34)nc(N)c21 (stereo not drawn) [Example 191B, 3-{4-amino-2-[6-fluoro-1-(2-fluorobenzyl)-1H-indazol-3-yl]-5-methyl-6-oxo-6,7-dihydro-5H-pyrrolo[2,3-d]pyrimidin-5-yl} benzoic acid] | 0.109 nM | 114% | 133 nM
9 | CC(C)(Cn1cc(C2(C)C(=O)Nc3nc(-c4nn(Cc5ccccc5F)c5cc(F)ccc45)nc(N)c32)cn1)C(=O)O (stereo not drawn) [Example 192A, 3-(4-{4-amino-2-[6-fluoro-1-(2-fluorobenzyl)-1H-indazol-3-yl]-5-methyl-6-oxo-6,7-dihydro-5H-pyrrolo[2,3-d]pyrimidin-5-yl}-1H-pyrazol-1-yl)-2,2-dimethyl-propanoic acid] | 0.116 nM | 103% | 1040 nM
10 | CC(C)(CCc1coc(C2(C)C(=O)Nc3nc(-c4nn(Cc5ccccc5F)c5cc(F)ccc45)nc(N)c32)n1)C(=O)O (stereo not drawn) [Example 193B, 4-(2-{4-amino-2-[6-fluoro-1-(2-fluorobenzyl)-1H-indazol-3-yl]-5-methyl-6-oxo-6,7-dihydro-5H-pyrrolo[2,3-d]pyrimidin-5-yl}-1,3-oxazol-4-yl)-2,2-dimethyl-butanoic acid] | 0.052 nM | 89.2% | 69 nM
11 | CC(C)(Cc1csc([C@]2(C)C(=O)Nc3nc(-c4nn(Cc5cccc(F)c5)c5cc(F)ccc45)nc(N)c32)n1)C(=O)O [Example 194A, (S)-3-(2-{4-amino-2-[6-fluoro-1-(3-fluorobenzyl)-1H-indazol-3-yl]-5-methyl-6-oxo-6,7-dihydro-5H-pyrrolo[2,3-d]pyrimidin-5-yl}-1,3-thiazol-4-yl)-2,2-dimethyl-propanoic acid] | 0.041 nM | 128% | 73 nM
12 | CC(C)(CCc1csc(C2(C)C(=O)Nc3nc(-c4nn(Cc5cccc(F)c5)c5cc(F)ccc45)nc(N)c32)n1)C(=O)O (stereo not drawn) [Example 196A, 4-(2-{4-amino-2-[6-fluoro-1-(3-fluorobenzyl)-1H-indazol-3-yl]-5-methyl-6-oxo-6,7-dihydro-5H-pyrrolo[2,3-d]pyrimidin-5-yl}-1,3-thiazol-4-yl)-2,2-dimethyl-butanoic acid] | 0.468 nM | 90.3% | 54 nM
13 | CC(C)(CCc1coc(C2(C)C(=O)Nc3nc(-c4nn(Cc5cccc(F)c5)c5cc(F)ccc45)nc(N)c32)n1)C(=O)O (stereo not drawn) [Example 197B, 4-(2-{4-amino-2-[6-fluoro-1-(3-fluorobenzyl)-1H-indazol-3-yl]-5-methyl-6-oxo-6,7-dihydro-5H-pyrrolo[2,3-d]pyrimidin-5-yl}-1,3-oxazol-4-yl)-2,2-dimethyl-butanoic acid] | 0.162 nM | 106% | 125 nM
14 | Cc1oc(C2(C)C(=O)Nc3nc(-c4nn(Cc5cccc(F)c5)c5cc(F)ccc45)nc(N)c32)nc1CC(C)(C)C(=O)O (stereo not drawn) [Example 198B, 3-(2-{4-amino-2-[6-fluoro-1-(3-fluorobenzyl)-1H-indazol-3-yl]-5-methyl-6-oxo-6,7-dihydro-5H-pyrrolo[2,3-d]pyrimidin-5-yl}-5-methyl-1,3 - oxazol-4-yl)-2,2-dimethyl-propanoic acid] | 0.107 nM | 134% | 1070 nM
15 | CC(C)(Cc1csc([C@]2(C)C(=O)Nc3nc(-c4nn(Cc5cccc(F)c5F)c5cc(F)ccc45)nc(N)c32)n1)C(=O)O [Example 199A, (S)-3-(2-{4-amino-2-[1-(2,3-difluorobenzyl)-6-fluoro-1H-indazol-3-yl]-5-methyl-6-oxo-6,7-dihydro-5H-pyrrolo[2,3-d]pyrimidin-5-yl}-1,3-thiazol-4-yl)-2,2-dimethyl-propanoic acid] | 0.07 nM | 108% | 66 nM
